The values that follow come from ChEMBL document CHEMBL5724914, “Linking interpersonal differences in gut microbiota composition and drug biotransformation activity” (2024).

A short description of data set [1]: The drug is tested on Z-013 corresponding to rabbit gut metagenome with ENA study accession number: PRJEB37062 and ENA sample accession number: ERS12561813 for biotransformation under anaerobic condition. The drug concentrations were measured over 9 timepoints collected between 0 and 24 hours of incubation by liquid-chromatography-coupled mass spectrometry (LC–MS). The conditions noted are these: 2 µM.

The nature of data set [2]: The drug is tested on Z-011 corresponding to mouse gut metagenome with ENA study accession number: PRJEB37062 and ENA sample accession number: ERS12561811 for biotransformation under anaerobic condition. The drug concentrations were measured over 9 timepoints collected between 0 and 24 hours of incubation by liquid-chromatography-coupled mass spectrometry (LC–MS). Conditions: 2 µM.

The nature of data set [3]: The drug is tested on Z-006 corresponding to mouse gut metagenome with ENA study accession number: PRJEB37062 and ENA sample accession number: ERS12561806 for biotransformation under anaerobic condition. The drug concentrations were measured over 9 timepoints collected between 0 and 24 hours of incubation by liquid-chromatography-coupled mass spectrometry (LC–MS). The conditions noted are these: 2 µM.

Data set [4] can be described thus: The drug is tested on WLS-370 corresponding to human gut metagenome with ENA study accession number: PRJEB37062 and ENA sample accession number: ERS12561793 for biotransformation under anaerobic condition. The drug concentrations were measured over 9 timepoints collected between 0 and 24 hours of incubation by liquid-chromatography-coupled mass spectrometry (LC–MS). The conditions noted are these: 2 µM.

The nature of data set [5]: The drug is tested on WLS-350 corresponding to human gut metagenome with ENA study accession number: PRJEB37062 and ENA sample accession number: ERS12561789 for biotransformation under anaerobic condition. The drug concentrations were measured over 9 timepoints collected between 0 and 24 hours of incubation by liquid-chromatography-coupled mass spectrometry (LC–MS). Conditions: 2 µM.

A short description of data set [6]: The drug is tested on WLS-082 corresponding to human gut metagenome with ENA study accession number: PRJEB37062 and ENA sample accession number: ERS12561751 for biotransformation under anaerobic condition. The drug concentrations were measured over 9 timepoints collected between 0 and 24 hours of incubation by liquid-chromatography-coupled mass spectrometry (LC–MS). Conditions: 2 µM.

The nature of data set [7]: The drug is tested on WLS-052 corresponding to human gut metagenome with ENA study accession number: PRJEB37062 and ENA sample accession number: ERS12561747 for biotransformation under anaerobic condition. The drug concentrations were measured over 9 timepoints collected between 0 and 24 hours of incubation by liquid-chromatography-coupled mass spectrometry (LC–MS). The conditions noted are these: 2 µM.

Data set [8] can be described thus: The drug is tested on WLS-039 corresponding to human gut metagenome with ENA study accession number: PRJEB37062 and ENA sample accession number: ERS12561746 for biotransformation under anaerobic condition. The drug concentrations were measured over 9 timepoints collected between 0 and 24 hours of incubation by liquid-chromatography-coupled mass spectrometry (LC–MS). The conditions noted are these: 2 µM.

Data set [9] is described as follows: The drug is tested on WLS-010 corresponding to human gut metagenome with ENA study accession number: PRJEB37062 and ENA sample accession number: ERS12561743 for biotransformation under anaerobic condition. The drug concentrations were measured over 9 timepoints collected between 0 and 24 hours of incubation by liquid-chromatography-coupled mass spectrometry (LC–MS). Conditions: 2 µM.

The nature of data set [10]: The drug is tested on WLS-007 corresponding to human gut metagenome with ENA study accession number: PRJEB37062 and ENA sample accession number: ERS12561742 for biotransformation under anaerobic condition. The drug concentrations were measured over 9 timepoints collected between 0 and 24 hours of incubation by liquid-chromatography-coupled mass spectrometry (LC–MS). The conditions noted are these: 2 µM.

Data set [11] is described as follows: The drug is tested on WLS-006 corresponding to human gut metagenome with ENA study accession number: PRJEB37062 and ENA sample accession number: ERS12561741 for biotransformation under anaerobic condition. The drug concentrations were measured over 9 timepoints collected between 0 and 24 hours of incubation by liquid-chromatography-coupled mass spectrometry (LC–MS). The conditions noted are these: 2 µM.

The conditions of data set [12]: human gut metagenome, 24 h, 2 µM.
For data set [13] the following is noted: human gut metagenome, 24 h, 2 µM. The source holds these as a separate data set.
For data set [14] the following is noted: human gut metagenome, 24 h, 2 µM. The source holds these as a separate data set.
For data set [15] the following is noted: human gut metagenome, 24 h, 2 µM. This is another data set of the same source.
For data set [16] the following is noted: human gut metagenome, 24 h, 2 µM. This is another data set of the same source.
The conditions of data set [17]: human gut metagenome, 24 h, 2 µM. This is another data set of the same source.
For data set [18] the following is noted: human gut metagenome, 24 h, 2 µM. The source holds these as a separate data set.
The conditions of data set [19]: human gut metagenome, 24 h, 2 µM. This is another data set of the same source.
The conditions of data set [20]: human gut metagenome, 24 h, 2 µM. This is another data set of the same source.
Note: call rule not given here.

Take `CCOC(=O)C1=C[C@]2(CC)CCCN3CCc4c(n1c1ccccc41)[C@@H]32` [VINPOCETINE]: the “Bacterial Biotransformation” value is “Compound NOT metabolized” in [1]; “Compound NOT metabolized” in data set [2]; “Compound NOT metabolized” in data set [3]; “Compound metabolized” in data set [4]; “Compound metabolized” in data set [5]; “Compound metabolized” in data set [6]. Also, the “Bacterial Biotransformation” value in [7] was “Compound metabolized”; in data set [8], “Compound NOT metabolized”; in data set [9] it was “Compound NOT metabolized”; in data set [10] it was “Compound NOT metabolized”; in data set [11] it was “Compound metabolized”; in data set [12] it was “Compound NOT metabolized”. For the same molecule, the “Bacterial Biotransformation” value is given as “Compound metabolized” in data set [13]; “Compound NOT metabolized” in data set [14]; “Compound metabolized” in data set [15]; “Compound NOT metabolized” in data set [16]; “Compound NOT metabolized” in [17]; “Compound metabolized” in [18]. The “Bacterial Biotransformation” value in [19] and in data set [20] was “Compound NOT metabolized” throughout.
`CCN(CC)C(=O)C1(c2ccccc2)CC1CN` (stereo not given): the “Bacterial Biotransformation” value in data set [1], in [2], in [3], in data set [4], in data set [5] and in [6] was “Compound NOT metabolized” each time. For the same molecule, the “Bacterial Biotransformation” value in [7], in [8], in data set [9], in [10], in data set [11] and in [12] was “Compound NOT metabolized” each time. In addition, the “Bacterial Biotransformation” value in data set [13], in data set [14], in data set [15], in data set [16], in [17] and in [18] was “Compound NOT metabolized” in each case. Moreover, the “Bacterial Biotransformation” value in [19] and in data set [20] was “Compound NOT metabolized” each time.
`CC(N)C12CC3CC(CC(C3)C1)C2` (stereo not given) [RIMANTADINE]: the “Bacterial Biotransformation” value in data set [1], in data set [2], in [3], in [4], in data set [5] and in data set [6] was “Compound NOT metabolized” each time. Besides, the “Bacterial Biotransformation” value in data set [7], in [8], in data set [9], in data set [10], in data set [11] and in data set [12] was “Compound NOT metabolized” in each case. Besides, the “Bacterial Biotransformation” value in [13], in data set [14], in data set [15], in data set [16], in [17] and in data set [18] was “Compound NOT metabolized” throughout. Moreover, the “Bacterial Biotransformation” value in data set [19] and in data set [20] was “Compound NOT metabolized” each time.
As to `O=P1(N(CCCl)CCCl)NCCCO1` (stereo not given) [CYCLOPHOSPHAMIDE ANHYDROUS], the “Bacterial Biotransformation” value was “Compound NOT metabolized” in [1]; “Compound NOT metabolized” in data set [2]; “Compound NOT metabolized” in [3]; “Compound NOT metabolized” in data set [4]; “Compound NOT metabolized” in data set [5]; “Compound metabolized” in [6]. In addition, the “Bacterial Biotransformation” value in [7], in data set [8], in [9], in [10], in data set [11] and in data set [12] was “Compound NOT metabolized” in each case. In addition, the “Bacterial Biotransformation” value is recorded as “Compound NOT metabolized” in data set [13]; “Compound NOT metabolized” in [14]; “Compound metabolized” in data set [15]; “Compound NOT metabolized” in [16]; “Compound NOT metabolized” in [17]; “Compound metabolized” in data set [18]. Further, the “Bacterial Biotransformation” value in data set [19] and in [20] was “Compound NOT metabolized” throughout.
In the case of `CCN(C)C(=O)Oc1cccc([C@H](C)N(C)C)c1.O=C(O)C(O)C(O)C(=O)O` [RIVASTIGMINE TARTRATE], the “Bacterial Biotransformation” value in data set [1], in data set [2], in [3], in [4], in data set [5] and in data set [6] was “Compound NOT metabolized” throughout. Also, the “Bacterial Biotransformation” value in [7] is “Compound metabolized”; in data set [8], “Compound metabolized”; in data set [9] it was “Compound NOT metabolized”; in [10], “Compound NOT metabolized”; in data set [11] it was “Compound NOT metabolized”; in data set [12], “Compound NOT metabolized”. The “Bacterial Biotransformation” value was “Compound NOT metabolized” in data set [13]; “Compound NOT metabolized” in data set [14]; “Compound NOT metabolized” in data set [15]; “Compound metabolized” in [16]; “Compound NOT metabolized” in [17]; “Compound NOT metabolized” in data set [18]. The “Bacterial Biotransformation” value in data set [19] and in [20] was “Compound NOT metabolized” in each case.
